What was measured:
[1] = system: 5x-FAD mice; experiment: Rotarod test; format: in vivo
Source text: Hemizygous 5x-FAD transgenic mice (B6.Cg-Tg(APPSwFlLon, PSEN1*M146L*L286V) 6799Vas/Mmjax; MMRRC Strain: 034848-JAX) on congenic C57BL/6J genetic background were used for experiments. The 5x-FAD mice were genotyped using APP-specific qPCR probes to detect the transgene as per the protocol of Jackson Laboratory. Six months old 5x-FAD mice were randomly divided into three groups (n = 5), based on their body weights, with three males and two females in each group. We used mixed-cohort of males and females for our study to exclude any gender biased effect of IBC. Also, AD symptoms are more pronounced in females than in males ([Aggarwal and Mielke, 2023]), making it possible that males and females respond differently to the drug and treatment. […]
To check the effect of IBC on the behavior of 5x-FAD mice, open field test (OFT), rotarod (Make; Ugo Basile, rota-rod for mice 7650) and radial arm maze (Make; Ugo Basile) tests were performed. […] After acclimatizing mice with rotarod for 5 days, their latency to fall was calculated on the day of analysis. […] Distance traveled, speed, time spent in corner and center zones and mobile episodes were recorded through an automated video tracking system using AnyMaze software. […] The movement of mice was tracked with the help of automated AnyMaze software connected with a tracking camera and various memory retention parameters were assessed.

[2] = system: autophagy pathway proteins; experiment: Immunoblotting of autophagy pathway proteins in primary astrocytes; format: cell-based, C57BL/6J mice
Procedure: Primary astrocytes were cultured from C57BL/6J (Jax:000664) mice pups with the approval of Institutional Animal Ethics Committee (IAEC) of CSIR-Indian Institute of Integrative Medicine (IIIM), Jammu, under IAEC number 287/80/2/2022 and 305/81/8/2022. The astrocytes were isolated from the brain of 3–4 days-old mice pups and were grown in 10% FBS-supplemented DMEM media. Briefly, pups were sacrificed through decapitation and sterilized with 70% ethanol. Brain was exposed and isolated. Olfactory lobes and cerebellum were removed with fine blade. The cortical region separated was collected in incomplete media (media without fetal bovine serum) and cut into small pieces. After that, these cortices were incubated at 37°C in 0.25% trypsin for 30 min, with gentle shaking after every 10 min. Trypsin activity was neutralized with complete media and cells were collected using a 70-micron cell strainer followed by centrifugation at 300 g for 5 min. The pellet was dissolved in fresh media and cells were grown in cell culture flasks and were maintained at 37°C in a CO2 incubator. Microglia and oligodendrocytes were separated from the underlying astrocyte layer after 6-7 days by shaking the flask for 6 h at 240 rpm. Cultures astrocytes within 2-4 passage were used for all the experiments.
Cellular lysates were prepared using radio immuno precipitation assay (RIPA) buffer for protein analysis. Briefly, the cell pellet was dissolved in RIPA buffer containing sodium fluoride, sodium orthovanadate, phenyl methyl sulfonyl fluoride (PMSF) and 1% protease inhibitor cocktail for 1 h with vertexing sample every 15 min. The supernatant was collected after high-speed centrifugation of samples for 20 min at 4°C. For analysis of proteins in mice hippocampi, the hippocampi isolated from mice brains was immediately washed with saline and stored in liquid nitrogen. For lysates preparation, tissue was homogenized in RIPA buffer substituted with sodium fluoride, sodium orthovanadate, phenyl methyl sulfonyl fluoride and 1% protease inhibitor cocktail. Total protein was measured using Bradford assay. Proteins were separated using SDS-PAGE and then transferred from gel to PVDF membrane. The protein of interest was labeled with a specific primary antibody overnight at 4°C. Further, the blot was incubated with corresponding HRP-conjugated secondary antibody for 1 h at room temperature. The band were visualized in the Genaxy Chemi Doc imaging system (Make: Syngene, Maryland, USA; Model: G: BOX, XT-4). Densitometry analysis of all the immunoblots was performed by using ImageJ software. Band density of proteins was normalized with β-actin. The phosphorylated proteins were normalized with their total forms.

[3] = system: Aβ42; experiment: Aβ clearance assay in primary astrocytes; format: cell-based, C57BL/6J mice
Procedure: Aβ42-HiLyte fluor488 peptide was prepared following the manufacturer’s protocol (Anaspec Inc.). Primary astrocytes seeded on coverslips were treated with IBC (10 μM) or rapamycin (24 h). After 12 h, 2 μg/ml fluorochrome tagged (Hilyte fluor488) Aβ42 protein was added to cells for another 12 h. Bafilomycin A1 was given 3 h prior to experiment termination. After the end of the assay, cells were washed with PBS and cells were fixed with 4% PFA, permeabilized with Triton-X 100, and the nucleus was stained with DAPI, as mentioned above. Similarly, slides were prepared, and images were taken and analyzed in the CQ1 high throughput imaging system.
AMPK expression was knocked down from the cells by using siRNA against AMPK using FuGENE HD for 24 h. Primary astrocytes seeded in 6 well plates were incubated in OPTI-MEM media for 30 min prior to transfection. The transfection mixture was prepared and kept in sterile condition for 20 min before being added to the cells. Following this, cells were treated for NLRP3 inflammasome activation as described above.

CC(C)=CCc1c(O)ccc(C(=O)/C=C/c2ccc(O)cc2)c1O [IBC, isobavachalcone]
latency to fall from rotarod ([1]; 25 mg/kg oral): 92 s | latency to fall from rotarod ([1]; 50 mg/kg oral): 118 s | ATG5 level ([2]; 24 h): upregulated | ATG7 level ([2]; 24 h): upregulated | BECN1 expression ([2]; 24 h): did not show any change | FIP200 phosphorylation ([2]; 24 h): increased phosphorylation | MTOR level ([2]; 24 h): no change | ULK1 phosphorylation ([2]; 24 h): phosphorylated at Ser 317 | pLKB1 (Ser 428) level ([2]; 24 h): no change | AMPK phosphorylation (Thr 172) ([2]; 24 h, 5, 10 and 20 μM): concentration-dependent increase | BCL2 level ([2]; 24 h, 5, 10 and 20 μM): marked decline | LC3B-II level ([2]; 24 h, 5, 10 and 20 μM): significant increase | pCAMKK2 (Ser 511) level ([2]; 24 h, 5, 10 and 20 μM): significantly upregulated | SQSTM1 level ([2]; 24 h, 10 and 20 μM): reducing levels | intracellular Aβ level ([3]; 10 μM with bafilomycin A1): increased | effect on clearance of Aβ ([3]; 10 μM with siAMPK): complete reversal | intracellular Aβ42-HiLyte fluor488 fluorescence ([3]; 10 μM, 24 h, vs cells with Aβ alone): significantly low fluorescence
